In US12370143B2, “Compound or salt thereof and lipid particles” (FUJIFILM Corporation, priority 2018, dated 2025):

Tests used:
[1] = Particle size of nucleic acid lipid particles (Luc2-siRNA); format: physicochemical; settings: compound/DSPC/cholesterol/DMG-PEG2000 50/10/38.5/1.5
Method in brief: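 Lipid particles formed from oil phase (test lipid/DSPC/cholesterol/DMG-PEG2000, 50/10/38.5/1.5 molar, 20 mmol/L total in ethanol) micromixed 1:3 with Luc2-siRNA in pH 4 acetate buffer (19.7 μmol/L); siRNA/lipid 339 mol/mol, PBS-diluted and dialyzed. Size measured on ELS-Z2 dynamic light scattering.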

[2] = Particle size of nucleic acid lipid particles (FVII-siRNA); format: physicochemical
Description: The compounds described in Table 2, L-α-distearoylphosphatidylcholine (trade name: COATSOME® MC-8080; NOF corporation), cholesterol (trade name: Choesterol HP; NIPPON FINE CHEMICAL CO., LTD.), and 1,2-dimyristoyl-rac-glycero-3-(methylpolyoxyethylene 2000) (hereinafter, called DMG-PEG2000) (trade name: SUNBRIGHT® GM-020; NOF corporation) were dissolved in ethanol at a molar ratio of 50/10/38.5/1.5 such that the total lipid concentration became 20 mmol/L, thereby obtaining an oil phase.
An aqueous nucleic acid solution obtained by dissolving 5 mg of Luc2-siRNA having the sequence described in Biomacromolecules (2013) 14, p. 3905 in 1 mL of sterile water was diluted with 10 mmol/L acetate buffer having a pH 4 such that the nucleic acid concentration became 19.7 μmol/L, thereby obtaining a water phase. Then, the water phase and the oil phase were mixed together by a micromixer (see JP5288254B) using a syringe pump such that the volume ratio of water phase:oil phase became 3:1 (final ratio of siRNA/lipid=339 (mol/mol)), and the mixed solution was diluted 2× with PBS, thereby obtaining a dispersion liquid of nucleic acid lipid particles. The dispersion liquid was dialyzed (Slide-A-Lyzer G2, MWCO: 10 kD, Thermo Fisher Scientific) using a phosphate buffered saline such that ethanol was removed, thereby obtaining nucleic acid lipid particles.
The particle size of the nucleic acid lipid particles was measured by the same method as that in <Preparation of lipid particles>.
(§1) The Factor VII (FVII) protein was measured according to the method described in Nature Biotechnology (2010) 28, 172-176. C57BL6/J mice were randomly grouped (n=3). A dispersion liquid of nucleic acid lipid particles was prepared by the same method as that in <Preparation of nucleic acid lipid particles>, except that FVII-siRNA having the sequence described in Molecular Therapy (2009) 17, p. 878 was used instead of Luc-siRNA. The dispersion liquid was administered to the caudal vein of the mice at a dosage of 0.1 mg/kg. For comparison, PBS at the same volume was administered to the caudal vein of the mice. Twenty four hours after the administration, blood was collected from the caudal vena cava, thereby obtaining plasma. The amount of FVII protein was quantified using the obtained plasma and a Biophen FVII assay kit (Aniara).

[3] = test system: Factor VII (FVII) protein; assay: Measurement of Factor VII (FVII) protein in mouse plasma after FVII-siRNA lipid particles; format: in vivo, C57BL6/J mice; settings: 0.1 mg/kg caudal vein, plasma 24 hours after administration, PBS group = 100%
Method in brief: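 C57BL6/J mice (n=3) received FVII-siRNA nucleic acid lipid particles at 0.1 mg/kg into the tail vein; controls got PBS. Each value is the percentage of the PBS-group FVII level.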

[4] = Encapsulation rate of siRNA in nucleic acid lipid particles (Luc2-siRNA); format: physicochemical; settings: compound/DSPC/cholesterol/DMG-PEG2000 50/10/38.5/1.5
Method in brief: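 Encapsulation rate was calculated as (total − outer-phase siRNA)/total ×100. Total siRNA was quantified spectrophotometrically after lipid-dissolving ethanol precipitation, and unencapsulated siRNA by RiboGreen in TE (ex 485/em 535 nm). The particles were test lipid/DSPC/cholesterol/DMG-PEG2000 at 50/10/38.5/1.5, formed by microfluidic mixing with Luc2-siRNA at pH 4 and dialyzed against PBS.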

[5] = Nucleic acid encapsulation rate of nucleic acid lipid particles (FVII-siRNA); format: physicochemical
Description: A 3 mol/L aqueous sodium acetate solution (30 μL) and 9 μL of glycogen were added to 60 μL of the lipid particles retaining nucleic acids, and then 1.5 mL of ethanol was added thereto such that only the nucleic acids were precipitated while the lipid was dissolved. Then, the supernatant was removed by centrifugation. After the precipitates were air-dried for 15 minutes or longer, water was added thereto such that the precipitates were redissolved, and the concentration thereof was measured using Nanodrop NF1000 (Thermo Fisher Scientific), thereby quantifying the total nucleic acid concentration.
The nucleic acid concentration was quantified using a Quant-iT RiboGreen RNA Assay Kit (Thermo Fisher Scientific) according to the protocol. First, a 20×TE buffer included in the above kit was diluted with water, thereby obtaining a 1×TE buffer. TE represents Tris/EDTA (ethylenediaminetetraacetic acid). In order to quantify only the nucleic acid in the outer water phase, the dispersion liquid of lipid particles retaining nucleic acids was diluted 10,000× with the 1×TE buffer.
The 10,000× diluted dispersion liquid of lipid particles (100 μL) was put in a 96-well plate, then 100 μL of a RiboGreen reagent (reagent included in the Quanti-iT Ribogreen RNA Assay Kit described above) diluted 2000× with the 1×TE buffer was added to a sample, and fluorescence (excitation wavelength: 485 nm, fluorescence wavelength: 535 nm) was measured using a plate reader Infinit EF200 (TECAN), thereby quantifying the nucleic acid concentration in the outer water phase.
By using the total nucleic acid concentration obtained through the above steps and the quantified nucleic acid concentration in the outer water phase, the nucleic acid encapsulation rate of the nucleic acid lipid particles was calculated according to the following Equation. Nucleic acid encapsulation rate (%)=(total nucleic acid concentration−nucleic acid concentration in outer water phase)/total nucleic acid concentration×100 The results are shown in Table 2.
as §1

[6] = test system: DMS273 cells constantly expressing Luc; assay: Target reporter protein (Luc) knockdown in cell, reporter protein assay; format: cell-based; settings: Homo sapiens, DMS-273; Luc2-siRNA lipid particles using the compound; siRNA 0.1 to 100 nmol/L; concentration at which Luc expression is knocked down to 50%; read-out: IC50
Method in brief: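 Nucleic acid lipid particles added at final 0.1 to 100 nmol/L to DMS273 human SCLC cells stably expressing Luc2, 24 hr exposure then 24 hr further culture after medium change. Luc quantified by Steady Glo luminescence after viable cell count; knockdown efficiency calculated and IC50 taken as concentration giving 50% Luc reduction.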

Row | SMILES | Particle size (nm) [1] [nm] | Particle size (nm) [2] [nm] | Relative amount of FVII protein (%) [3] [%] | Nucleic acid encapsulation rate [4] [%] | Nucleic acid encapsulation rate [5] [%] | IC50 [6] [nM]
1 | CCCCC/C=C\C/C=C\CCCCCCCCC(CCCCCCCC/C=C\C/C=C\CCCCC)OC(=O)OCCN(CC)CCN(C)C [Example 24, 2-((2-(Dimethylamino)ethyl)(ethyl)amino)ethyl((6Z,9Z,28Z,31Z)-heptatriaconta-6,9,28,31-tetraen-19-yl)carbonate] | 62.0 | 66.2 | 24 | 88 | 67 | 41
2 | CCCCCCCC/C=C\CCCCCCCC(=O)OCCN(CCOC(=O)OC(CCCCCC)CCCC(=O)OCC(CCCC)CCCCCC)CCN(CC)CC (stereo not drawn) [Example 119, 2-Butyloctyl 3-ethyl-12-hexyl-6-(2-(oleoyloxy)ethyl)-10-oxo-9,11-dioxa-3,6-diazahexadecan-16-oate] | 67.8 | 66.3 | 5 | 89 | 69 | 31
3 | CCCCC/C=C\C/C=C\CCCCCCCCC(CCCCCCCC/C=C\C/C=C\CCCCC)OC(=O)OCCN(C)CCN(CC)CC [Example 23, 2-((2-(Diethylamino)ethyl)(methyl)amino)ethyl((6Z,9Z,28Z,31Z)-heptatriaconta-6,9,28,31-tetraen-19-yl)carbonate] | 69.2 | 75.4 | 39 | 85 | 57 | 39
4 | CCCC/C=C\CCCCCCCC(=O)OCCCCCCC(CCCCCCOC(=O)CCCCCCC/C=C\CCCC)OC(=O)OCCN(CC)CCN(CC)CC [Example 47, 7-(((2-((2-(Diethylamino)ethyl)(ethyl)amino)ethoxy)carbonyl)oxy)tridecane-1,13-diyl(9Z,9′Z)-bis(tetradec-9-enoate)] | 72.3 | 79.4 | 11 | 74 | 82 | 19
5 | CCCCCCCOC(=O)CCN(CCOC(=O)OC(CCCCCC)CCCCCCCCC(=O)OCC(CCCC)CCCCCC)CCN(CC)CC (stereo not drawn) [Example 122, 2-Butyloctyl 3-ethyl-6-(3-(heptyloxy)-3-oxopropyl)-12-hexyl-10-oxo-9,11-dioxa-3,6-diazahenicosan-21-oate] | 69.5 | 80.7 | 3 | 83 | 84 | 19
6 | CCCCC/C=C\C/C=C\CCCCCCCCC(CCCCCCCC/C=C\C/C=C\CCCCC)OC(=O)OCCN(CCCCC)CCN(C)C [Example 40, 2-((2-(Dimethylamino)ethyl)(pentyl)amino)ethyl((6Z,9Z,28Z,31Z)-heptatriaconta-6,9,28,31-tetraen-19-yl)carbonate] | 73.7 | 66.6 | 3 | 75 | 75 | 15
7 | CCCCCCCCCC(=O)OCCN(CCOC(=O)OC(CCCCCC)CCCCCCCCC(=O)OCC(CCCC)CCCCCC)CCN(CC)CC (stereo not drawn) [Example 87, 2-Butyloctyl 6-(2-(decanoyloxy)ethyl)-3-ethyl-12-hexyl-10-oxo-9,11-dioxa-3,6-diazahenicosan-21-oate] | 69.2 | 69.3 | 3 | 79 | 87 | 34
8 | CCCCCCCCCCCCC(CCCCCCCCCC)COC(=O)CCCC(CCCCCC)OC(=O)OCCN(CCN(CC)CC)C(C)C (stereo not drawn) [Example 113, 2-Decyltetradecyl 3-ethyl-12-hexyl-6-isopropyl-10-oxo-9,11-dioxa-3,6-diazahexadecan-16-oate] | 67.8 | 66.1 | 4 | 82 | 100 | 21
9 | CCCCCCCCCCCC(=O)OCCN(CCOC(=O)OC(CCCCCC)CCCC(=O)OCC(CCCC)CCCCCC)CCN(CC)CC (stereo not drawn) [Example 106, 2-Butyloctyl 6-(2-(dodecanoyloxy)ethyl)-3-ethyl-12-hexyl-10-oxo-9,11-dioxa-3,6-diazahexadecan-16-oate] | 62.4 | 66.4 | 2 | 80 | 85 | 37
10 | CCCCCCCC/C=C\CCCCCCCC(=O)OCCCCCCC(CCCCCCOC(=O)CCCCCCC/C=C\CCCCCCCC)OC(=O)OCCN(CCCCCC)CCN(C)C [Example 43] | 74.5 | 75.3 | 11 | 78 | 87 | 19
